# Values quoted from earlier work as cited in patent US10201585B2, “Methods for treatment of atherosclerosis” (Stealth Peptides International, Inc., priority 2012, dated 2019).
# Legend:
# hepatitis C virus (HCV) = details: alone and with interferon; cited from earlier work
# [1] = system: spinal cord injury in rodents; details: administered both pre- and post-injury; cited from earlier work
SMILES,Effect on HCV in an in vitro model of HCV infection (hepatitis C virus (HCV)),Effect in spinal cord injury [1]
O=C(O)C[C@H](O)C[C@H](O)/C=C/c1c(C2CC2)nc2ccccc2c1-c1ccc(F)cc1 [pitavastatin],anti-HCV effect,
CC(C)c1c(C(=O)Nc2ccccc2)c(-c2ccccc2)c(-c2ccc(F)cc2)n1CC[C@@H](O)C[C@@H](O)CC(=O)O [atorvastatin],anti-HCV effect,"promoting locomotion and tissue sparing, as well as reducing inflammation"
CC[C@H](C)C(=O)O[C@H]1C[C@@H](C)C=C2C=C[C@H](C)[C@H](CC[C@@H]3C[C@@H](O)CC(=O)O3)[C@H]21 [lovastatin],anti-HCV effect,
